In PubChem BioAssay (NCI):
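Values below derive from 48-hour exposures of cells grown in 96-well plates, with endpoints linearly interpolated between the two concentrations bracketing the appropriate inhibition level. The concentration for full growth arrest is given as TGI.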

Legend:
Test in all cases: NCI-60 cell line screen, 48 h
[1] = system: 786-0 renal
[2] = system: A498 renal
[3] = system: A549 NSCLC
[4] = system: ACHN renal
[5] = system: BT-549 breast
[6] = system: CCRF-CEM leukemia
[7] = system: COLO 205 colon
[8] = system: DU-145 prostate
[9] = system: EKVX NSCLC
[10] = system: HCC-2998 colon
[11] = system: HCT-116 colon
[12] = system: HCT-15 colon
[13] = system: HL-60(TB) leukemia
[14] = system: HOP-62 NSCLC
[15] = system: HOP-92 NSCLC
[16] = system: HS 578T breast
[17] = system: HT29 colon
[18] = system: IGROV1 ovarian
[19] = system: K-562 leukemia
[20] = system: KM12 colon
[21] = system: M14 melanoma
[22] = system: MALME-3M melanoma
[23] = system: MCF7 breast
[24] = system: MDA-MB-435
[25] = system: MDA-N
[26] = system: MOLT-4 leukemia
[27] = system: NCI-H226 lung
[28] = system: NCI-H23 lung
[29] = system: NCI-H460 lung
[30] = system: NCI/ADR-RES ovarian
[31] = system: OVCAR-3 ovarian
[32] = system: OVCAR-5 ovarian
[33] = system: OVCAR-8 ovarian
[34] = system: PC-3 prostate
[35] = system: RPMI-8226 leukemia
[36] = system: RXF 393 renal
[37] = system: SF-268 CNS
[38] = system: SF-295 CNS
[39] = system: SF-539 CNS
[40] = system: SK-MEL-28 melanoma
[41] = system: SK-MEL-5 melanoma
[42] = system: SK-OV-3 ovarian
[43] = system: SN12C renal
[44] = system: SNB-19 CNS
[45] = system: SNB-75 CNS
[46] = system: SR leukemia
[47] = system: SW-620 colon
[48] = system: TK-10 renal
[49] = system: U251 CNS
[50] = system: UACC-257 melanoma
[51] = system: UACC-62 melanoma
[52] = system: UO-31 renal
[53] = system: CAKI-1 renal
[54] = system: LOX IMVI melanoma
[55] = system: MDA-MB-231 breast
[56] = system: NCI-H522 lung
[57] = system: OVCAR-4 ovarian
[58] = system: SK-MEL-2 melanoma
[59] = system: T-47D breast

SMILES: COC(=O)c1csc(-c2csc(CCNC(=O)OC(C)(C)C)n2)n1
- TGI [1]: > 100 µM
- TGI [2]: 99 µM
- TGI [3]: > 100 µM
- TGI [4]: > 100 µM
- TGI [5]: > 100 µM
- TGI [6]: > 100 µM
- TGI [7]: > 100 µM
- TGI [8]: > 100 µM
- TGI [9]: > 100 µM
- TGI [10]: > 100 µM
- TGI [11]: > 100 µM
- TGI [12]: > 100 µM
- TGI [13]: > 100 µM
- TGI [14]: > 100 µM
- TGI [15]: > 100 µM
- TGI [16]: > 100 µM
- TGI [17]: > 100 µM
- TGI [18]: > 100 µM
- TGI [19]: > 100 µM
- TGI [20]: > 100 µM
- TGI [21]: > 100 µM
- TGI [22]: > 100 µM
- TGI [23]: > 100 µM
- TGI [24]: > 100 µM
- TGI [25]: > 100 µM
- TGI [26]: > 100 µM
- TGI [27]: > 100 µM
- TGI [28]: > 100 µM
- TGI [29]: > 100 µM
- TGI [30]: > 100 µM
- TGI [31]: > 100 µM
- TGI [32]: > 100 µM
- TGI [33]: > 100 µM
- TGI [34]: > 100 µM
- TGI [35]: > 100 µM
- TGI [36]: > 100 µM
- TGI [37]: > 100 µM
- TGI [38]: > 100 µM
- TGI [39]: > 100 µM
- TGI [40]: > 100 µM
- TGI [41]: > 100 µM
- TGI [42]: > 100 µM
- TGI [43]: > 100 µM
- TGI [44]: > 100 µM
- TGI [45]: > 100 µM
- TGI [46]: > 100 µM
- TGI [47]: > 100 µM
- TGI [48]: > 100 µM
- TGI [49]: > 100 µM
- TGI [50]: > 100 µM
- TGI [51]: > 100 µM
- TGI [52]: > 100 µM

SMILES: CC(C#N)(NO)C(C)(C#N)NO (configuration not stated)
- TGI [1]: > 100 µM
- TGI [2]: > 100 µM
- TGI [3]: > 100 µM
- TGI [5]: > 100 µM
- TGI [53]: > 100 µM
- TGI [6]: > 100 µM
- TGI [7]: > 100 µM
- TGI [8]: > 100 µM
- TGI [9]: > 100 µM
- TGI [10]: > 100 µM
- TGI [11]: > 100 µM
- TGI [12]: > 100 µM
- TGI [13]: > 100 µM
- TGI [16]: > 100 µM
- TGI [17]: > 100 µM
- TGI [18]: > 100 µM
- TGI [19]: > 100 µM
- TGI [20]: > 100 µM
- TGI [54]: > 100 µM
- TGI [21]: > 100 µM
- TGI [22]: > 100 µM
- TGI [23]: > 100 µM
- TGI [55]: > 100 µM
- TGI [24]: > 100 µM
- TGI [25]: > 100 µM
- TGI [26]: > 100 µM
- TGI [27]: > 100 µM
- TGI [28]: > 100 µM
- TGI [29]: > 100 µM
- TGI [56]: > 100 µM
- TGI [30]: > 100 µM
- TGI [31]: > 100 µM
- TGI [57]: > 100 µM
- TGI [32]: > 100 µM
- TGI [33]: > 100 µM
- TGI [34]: > 100 µM
- TGI [35]: > 100 µM
- TGI [36]: > 100 µM
- TGI [37]: > 100 µM
- TGI [39]: > 100 µM
- TGI [58]: > 100 µM
- TGI [40]: > 100 µM
- TGI [41]: > 100 µM
- TGI [42]: > 100 µM
- TGI [43]: > 100 µM
- TGI [44]: > 100 µM
- TGI [45]: > 100 µM
- TGI [46]: > 100 µM
- TGI [47]: > 100 µM
- TGI [59]: > 100 µM
- TGI [48]: > 100 µM
- TGI [49]: > 100 µM
- TGI [50]: > 100 µM
- TGI [51]: > 100 µM
- TGI [52]: > 100 µM
